{
  "source": "patent US11214803B2",
  "about": "“Modulators of YAP1 expression” (Ionis Pharmaceuticals, Inc., priority 2019, dated 2022)",
  "system": "Yap1 mRNA",
  "experiment": "Dose-dependent inhibition of human Yap1 in A-431 cells (Example 7, 10,000 cells per well, RTS36584)",
  "type": "cell-based",
  "details": "free uptake",
  "method": "Modified oligonucleotides described in the studies above were tested at various doses in A-431 cells. Cultured A-431 cells at a density of 10,000 cells per well were treated using free uptake with modified oligonucleotides diluted to concentrations described in the tables below. After approximately 48 hours, Yap1 mRNA levels were measured as previously described using the Human Yap1 primer-probe set RTS36584. Yap1 mRNA levels were normalized to total RNA content, as measured by RIBOGREEN®. Results are presented in the tables below as percent control of the amount of Yap1 mRNA relative to untreated control cells (% UTC). IC50s were calculated using a linear regression on a log/linear plot of the data in excel.",
  "key": {"[1]": {"details": "15.6 nM, A-431 cells, 10,000 cells per well, approximately 48 hours"}, "[2]": {"details": "62.5 nM, A-431 cells, 10,000 cells per well, approximately 48 hours"}, "[3]": {"details": "4000.00 nM, A-431 cells, 10,000 cells per well, approximately 48 hours"}, "[4]": {"details": "A-431 cells, approximately 48 hours, linear regression on log/linear plot"}, "[5]": {"details": "Table 61, 15.6 nM, A-431 cells 10,000 cells per well, 48 hours"}, "[6]": {"details": "Table 61, 62.5 nM, A-431 cells 10,000 cells per well, 48 hours"}, "[7]": {"details": "Table 61, 4000.00 nM, A-431 cells 10,000 cells per well, 48 hours"}, "[8]": {"details": "Table 61, A-431 cells 10,000 cells per well"}, "[9]": {"details": "Table 56, 15.6 nM, A-431 cells 10,000 cells per well, 48 hours"}, "[10]": {"details": "Table 56, 62.5 nM, A-431 cells 10,000 cells per well, 48 hours"}, "[11]": {"details": "Table 56, 4000.00 nM, A-431 cells 10,000 cells per well, 48 hours"}, "[12]": {"details": "Table 56, A-431 cells 10,000 cells per well"}, "[13]": {"details": "Table 57, 15.6 nM, A-431 cells 10,000 cells per well, 48 hours"}, "[14]": {"details": "Table 57, 62.5 nM, A-431 cells 10,000 cells per well, 48 hours"}, "[15]": {"details": "Table 57, 4000.00 nM, A-431 cells 10,000 cells per well, 48 hours"}, "[16]": {"details": "Table 57, A-431 cells 10,000 cells per well"}},
  "note": "pIC50: −log10 of the molar value. Strand notation (5' to 3'): a small letter for the sugar, then the base; units joined by * are phosphorothioate-linked, units joined directly phosphodiester-linked; [ ] holds rarer units or linkages, { } end groups; capitals alone tell only the bases. k = constrained ethyl (cEt); [5mC] = 5-methylcytosine; d = 2'-deoxy (DNA)",
  "data": [
    {"substance": "958650 (kT*k[5mC]*kA*dA*dT*dT*dG*dA*dG*dT*d[5mC]*dT*dG*k[5mC]*kT*kA; antisense) [compound 958650]", "values": [
      {"measurement": "Yap1 mRNA, % UTC", "setting": "[1]", "result": 82, "unit": "% UTC"},
      {"measurement": "Yap1 mRNA, % UTC", "setting": "[2]", "result": 51, "unit": "% UTC"},
      {"measurement": "Yap1 mRNA, % UTC", "setting": "[3]", "result": 7, "unit": "% UTC"},
      {"measurement": "pIC50", "setting": "[4]", "result": 7.00}
    ]},
    {"substance": "958659 (kG*kT*kT*dG*dT*dA*dT*dT*dA*d[5mC]*dT*d[5mC]*dT*k[5mC]*k[5mC]*kA; antisense) [compound 958659]", "values": [
      {"measurement": "Yap1 mRNA, % UTC", "setting": "[5]", "result": 91, "unit": "% UTC"},
      {"measurement": "Yap1 mRNA, % UTC", "setting": "[6]", "result": 68, "unit": "% UTC"},
      {"measurement": "Yap1 mRNA, % UTC", "setting": "[7]", "result": 9, "unit": "% UTC"},
      {"measurement": "pIC50", "setting": "[8]", "result": 7.00}
    ]},
    {"substance": "958373 (antisense kA*kG*kG*dT*dG*d[5mC]*dT*dA*dG*d[5mC]*dT*dG*dG*kT*kG*k[5mC]) [compound 958373]", "values": [
      {"measurement": "Yap1 mRNA, % UTC", "setting": "[9]", "result": 72, "unit": "% UTC"},
      {"measurement": "Yap1 mRNA, % UTC", "setting": "[10]", "result": 45, "unit": "% UTC"},
      {"measurement": "Yap1 mRNA, % UTC", "setting": "[11]", "result": 17, "unit": "% UTC"},
      {"measurement": "pIC50", "setting": "[12]", "result": 7.30}
    ]},
    {"substance": "958570 (kT*kG*kT*dA*dA*dT*dT*d[5mC]*dA*dT*dA*dT*dA*k[5mC]*k[5mC]*k[5mC]; antisense) [compound 958570]", "values": [
      {"measurement": "Yap1 mRNA, % UTC", "setting": "[1]", "result": 93, "unit": "% UTC"},
      {"measurement": "Yap1 mRNA, % UTC", "setting": "[2]", "result": 60, "unit": "% UTC"},
      {"measurement": "Yap1 mRNA, % UTC", "setting": "[3]", "result": 17, "unit": "% UTC"},
      {"measurement": "pIC50", "setting": "[4]", "result": 7.00}
    ]},
    {"substance": "958369 (antisense kT*kT*kA*dT*d[5mC]*dT*dA*dG*d[5mC]*dT*dT*dG*dG*kT*kG*kG) [compound 958369]", "values": [
      {"measurement": "Yap1 mRNA, % UTC", "setting": "[9]", "result": 107, "unit": "% UTC"},
      {"measurement": "Yap1 mRNA, % UTC", "setting": "[10]", "result": 68, "unit": "% UTC"},
      {"measurement": "Yap1 mRNA, % UTC", "setting": "[11]", "result": 17, "unit": "% UTC"},
      {"measurement": "pIC50", "setting": "[12]", "result": 6.77}
    ]},
    {"substance": "958599 (kT*kT*k[5mC]*dA*dA*dG*dA*dA*dT*dA*d[5mC]*d[5mC]*d[5mC]*kA*kG*kT; antisense) [compound 958599]", "values": [
      {"measurement": "Yap1 mRNA, % UTC", "setting": "[5]", "result": 100, "unit": "% UTC"},
      {"measurement": "Yap1 mRNA, % UTC", "setting": "[6]", "result": 74, "unit": "% UTC"},
      {"measurement": "Yap1 mRNA, % UTC", "setting": "[7]", "result": 16, "unit": "% UTC"},
      {"measurement": "pIC50", "setting": "[8]", "result": 6.70}
    ]},
    {"substance": "958614 (kG*kT*k[5mC]*dT*dT*dG*dT*dT*d[5mC]*dT*dT*dA*dT*kG*kG*kT; antisense) [compound 958614]", "values": [
      {"measurement": "Yap1 mRNA, % UTC", "setting": "[5]", "result": 84, "unit": "% UTC"},
      {"measurement": "Yap1 mRNA, % UTC", "setting": "[6]", "result": 49, "unit": "% UTC"},
      {"measurement": "Yap1 mRNA, % UTC", "setting": "[7]", "result": 13, "unit": "% UTC"},
      {"measurement": "pIC50", "setting": "[8]", "result": 7.00}
    ]},
    {"substance": "958761 (kA*kG*kT*d[5mC]*dT*d[5mC]*dA*dA*d[5mC]*dA*dA*d[5mC]*d[5mC]*kT*kT*k[5mC]; antisense) [compound 958761]", "values": [
      {"measurement": "Yap1 mRNA, % UTC", "setting": "[13]", "result": 84, "unit": "% UTC"},
      {"measurement": "Yap1 mRNA, % UTC", "setting": "[14]", "result": 73, "unit": "% UTC"},
      {"measurement": "Yap1 mRNA, % UTC", "setting": "[15]", "result": 24, "unit": "% UTC"},
      {"measurement": "pIC50", "setting": "[16]", "result": 6.70}
    ]},
    {"substance": "958616 (kG*kG*kT*dG*dG*dT*d[5mC]*dT*dT*dG*dT*dT*d[5mC]*kT*kT*kA; antisense) [compound 958616]", "values": [
      {"measurement": "Yap1 mRNA, % UTC", "setting": "[13]", "result": 78, "unit": "% UTC"},
      {"measurement": "Yap1 mRNA, % UTC", "setting": "[14]", "result": 49, "unit": "% UTC"},
      {"measurement": "Yap1 mRNA, % UTC", "setting": "[15]", "result": 17, "unit": "% UTC"},
      {"measurement": "pIC50", "setting": "[16]", "result": 7.00}
    ]},
    {"substance": "958569 (kA*kG*k[5mC]*d[5mC]*dT*dT*dA*dG*dA*dG*dT*d[5mC]*dA*kA*kT*kT; antisense) [compound 958569]", "values": [
      {"measurement": "Yap1 mRNA, % UTC", "setting": "[5]", "result": 82, "unit": "% UTC"},
      {"measurement": "Yap1 mRNA, % UTC", "setting": "[6]", "result": 49, "unit": "% UTC"},
      {"measurement": "Yap1 mRNA, % UTC", "setting": "[7]", "result": 7, "unit": "% UTC"},
      {"measurement": "pIC50", "setting": "[8]", "result": 7.00}
    ]},
    {"substance": "958356 (antisense kT*kT*kG*dA*dA*dG*dA*dA*dG*dG*dA*dG*dT*k[5mC]*kG*kG) [compound 958356]", "values": [
      {"measurement": "Yap1 mRNA, % UTC", "setting": "[9]", "result": 84, "unit": "% UTC"},
      {"measurement": "Yap1 mRNA, % UTC", "setting": "[10]", "result": 79, "unit": "% UTC"},
      {"measurement": "Yap1 mRNA, % UTC", "setting": "[11]", "result": 21, "unit": "% UTC"},
      {"measurement": "pIC50", "setting": "[12]", "result": 6.74}
    ]}
  ]
}
